Results on two compounds are retold here after BindingDB's records for doi:10.7270/Q2G44NRK (Burnham Center For Chemical Genomics, 2010).

Bounds are passed on as bounds.

This assay deals with Mu-type opioid receptor (Homo sapiens, UniProt P35372). Briefly: mu opioid receptor blockers – image-based, SAR follow-up (AID 2420).

By IC50 is commonly meant the concentration that gives 50% inhibition.

Sequence of Mu-type opioid receptor (P35372 whole entry): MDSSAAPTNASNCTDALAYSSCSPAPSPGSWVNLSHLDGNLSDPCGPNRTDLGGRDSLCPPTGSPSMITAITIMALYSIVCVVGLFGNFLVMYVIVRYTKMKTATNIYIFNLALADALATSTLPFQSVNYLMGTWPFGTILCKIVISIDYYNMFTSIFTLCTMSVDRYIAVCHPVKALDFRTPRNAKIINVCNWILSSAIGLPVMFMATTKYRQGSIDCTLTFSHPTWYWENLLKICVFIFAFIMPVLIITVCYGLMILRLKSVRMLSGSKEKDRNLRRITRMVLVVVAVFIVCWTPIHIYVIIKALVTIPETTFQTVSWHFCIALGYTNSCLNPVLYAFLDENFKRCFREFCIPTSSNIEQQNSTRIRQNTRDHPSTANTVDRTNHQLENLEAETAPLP

For `CCC(N=Nc1ccnc2cc(Cl)ccc12)c1ccc(O)cc1` (configuration not stated) [4-[1-[2-(7-chloroquinolin-4-yl)hydrazinyl]propylidene]cyclohexa-2,5-dien-1-one], the IC50 was over 32 µM. In the case of `Oc1ccc(CN=Nc2ccnc3cc(Cl)ccc23)cc1O` [(4Z)-4-[[2-(7-chloroquinolin-4-yl)hydrazinyl]methylidene]-2-hydroxycyclohexa-2,5-dien-1-one] it was over 32 µM.
